The numbers were not newly measured in patent publication US20050220753A1, “Hydrophilic polymers-flavoids conjugates and pharmaceutical compositions comprising them” (BEIJING JIANKAI TECHNOLOGY CO., LTD, priority 2002, published 2005), which cites them from elsewhere.

For data set [1] the following is noted: human, intravenously infused.
For data set [2] the following is noted: rats, intravenous injection.

Where two headings read alike, the source gives them in different places.

For `O=c1c(-c2ccc(O)cc2)coc2c([C@@H]3O[C@H](CO)[C@@H](O)[C@H](O)[C@H]3O)c(O)ccc12` [Puerarin], the elimination half-life in data set [1] was 74 min.

With `O=c1cc(-c2ccccc2)oc2cc(O)c(O)c(O)c12` [Baicalein], in data set [2], the absorption half-life was 13 min and the elimination half-life was 42 min.
